Reference: PMC13129536 (The Journal of Biological Chemistry, 2026)

Test system: M. tuberculosis Erdman
Test: Pathogenic (BSL3) tuberculosis CFU assay
Format: cell-based
Conditions: Mycobacterium tuberculosis, 96 h; for IC50: read-out: IC50 (CFU/mL at 96 hours); for IC90: read-out: IC90 (CFU/mL at 96 hours)

| SMILES | IC50 | IC90 |
| --- | --- | --- |
| c1ccc(-c2nc3cc(Cc4ccc5[nH]c(-c6ccccn6)nc5c4)ccc3[nH]2)nc1 [Compound F0850-5995] | ~1.12 µM | 6.64 ± 3.86 µM |
| Cc1ccc(C)c(Nc2nc(NCc3ccccc3)c3ccccc3n2)c1 [Compound F0909-0124] | ~8.97 µM |  |
| C[C@@H](O)[C@H]1C(=O)N2C(C(=O)O)=C(S[C@@H]3CN[C@H](C(=O)N(C)C)C3)[C@H](C)[C@H]12 [Meropenem, meropenem, reference compound] | 0.697 ± 0.11 mg/L | 1.16 ± 0.255 mg/L |
